Measured values from PMC5617480 (Oncotarget, 2017).

How the values were obtained:
[1] = tested on: MGC80-3 cells; parameters: method as in earlier work; conditions: MGC80-3, 48 h; ref [1]; cited from earlier work
[2] = tested on: Pu27 (c-myc) G4; parameters: method as in earlier work; conditions: ref [1], cited from earlier work; for ctDNADC50/Pu27DC50: FID selectivity ratio; for Pu27DC50: FID
[3] = tested on: ctDNA; parameters: method as in earlier work; conditions: ref [1], cited from earlier work; for ctDNADC50/ctDNADC50: FID selectivity ratio; for ctDNADC50: FID
[4] = tested on: HTG21 (DNA, G4) GGGTTAGGGTTAGGGTTAGGG; experiment: fluorescent intercalator displacement (FID); conditions: thiazole orange displaced
[5] = Solubility in water by UV-vis spectroscopy; format: physicochemical; conditions: H2O
Description: We next determined the solubility and stability of complexes 4, 5, and 6 in H2O and TBS buffer by UV-vis spectroscopy. […] TBS buffer (1% DMSO, 100 mM KCl, and 10 mM pH 7.35 Tris-HCl) was used to mimic normal physiological conditions.

[6] = tested on: BEL-7404 cells; experiment: Cell cycle analysis (PI flow cytometry); format: cell-based, human; conditions: BEL-7404, 10 μM, 48 h; untreated 24.76%
Description: Platinum(II)-based drugs were widely used in anticancer chemotherapies, therefore, we performed experiments to test the potency of chiral platinum(II) complexes 4–6 for inducing senescence and apoptosis in BEL-7404 cells. […] We next investigated the effect of complexes 4–6 on the induction of apoptosis. BEL-7404 cells were incubated with complexes 4 (10 and 20 μM), 5 (10 and 20 μM) and 6 (5, 10 and 20 μM) for 24 h, respectively, and then these cells staining with PI and Annexin-V-FITC were determined by flow cytometry (Figure 3A and Supplementary Figure 18). As shown in Figure 3A and Supplementary Figure 18, after treated of complexes 4–6 with 10 μM for 24 h, the percentage of apoptotic cells (including early-stage and late-stage, Q2+Q4) was 13.1%, 7.0% and 25.4%, respectively, whereas the normal cells was only 6.1%. We further investigated the ability of complexes 4–6 (5, 10 and 20 μM) to induce BEL-7404 cell cycle arrest (Figure 3B and Supplementary Figure 19). Cells were treated with complexes 4–6 at 10 μM for 48 h, the cell cycle arrest was determined by using flow cytometry. […]
Apoptosis analysis c-myc antibody, or anti-β-actin primary antibody and the Apoptosis was detected by flow cytometric analysis corresponding secondary antibody were used to detect of annexin V staining. […] Then, cells were incubated with annexin V-FITC and PI for 1.0 h at Staining for SA-β-Gal activity was carried out room temperature in the dark and immediately analyzed according to Moore and Chen reports. […] The data are presented as biparametric After the long-term incubation with complexes 4–6, the dot plots showing PI red fluorescence vs annexin V-FITC growth medium was aspirated and the BEL-7404 cells green fluorescence. were fixed in 2% formaldehyde/0.2% glutaraldehyde for 15.0 min at room temperature. […] Finally, the extraction, RT-PCR, and the selective binding to G4s by BEL-7404 cell cycle was determined with FACS Calibur complexes 4–6 was according to the our previous reported flow cytometer (BD) and analyzed using Cell Quest. […]

[7] = tested on: Pu22; experiment: FID assay; format: binding; conditions: for Pu22DC50: FID; for ctDNADC50/Pu22DC50: FID selectivity ratio
[8] = molecular target: T1, telomerase (Homo sapiens, UniProt O14746); experiment: TRAP assay (TRAP-silver staining assay); format: biochemical; conditions: BEL-7404 cells, 10 μM, 24 h
T1 construct: Each telomerase extract was prepared from BEL-; endogenous in cells; host or cells: BEL-7404 cell extract
Text: As mentioned above, G4s structures widely exist in telomeres, we therefore monitored the effect of chiral platinum(II) complexes on function and activity of telomerase. To address this, we first determined the effect of complexes 4–6 on the expression of some telomeric DNA-associated proteins. […] We next evaluated the activity of telomerase by TRAP assay.
Apoptosis analysis c-myc antibody, or anti-β-actin primary antibody and the Apoptosis was detected by flow cytometric analysis corresponding secondary antibody were used to detect of annexin V staining. Annexin V-FITC vs PI assay was target protein via standard washing and incubating steps. performed as previously described. Briefly, adherent Senescence induction and selective binding to NEL-7404 cells were harvested and suspended in the G4s by 4–6 in BEL-7404 cells annexin-binding buffer (5×10^5 cells/mL). Then, cells were incubated with annexin V-FITC and PI for 1.0 h at Staining for SA-β-Gal activity was carried out room temperature in the dark and immediately analyzed according to Moore and Chen reports. In brief, by flow cytometry. The data are presented as biparametric After the long-term incubation with complexes 4–6, the dot plots showing PI red fluorescence vs annexin V-FITC growth medium was aspirated and the BEL-7404 cells green fluorescence. were fixed in 2% formaldehyde/0.2% glutaraldehyde for 15.0 min at room temperature. […] Finally, the extraction, RT-PCR, and the selective binding to G4s by BEL-7404 cell cycle was determined with FACS Calibur complexes 4–6 was according to the our previous reported flow cytometer (BD) and analyzed using Cell Quest.
(BDIS) and ModFit LT (Verity Software House, Topsham, ME). Gene expression by a panel of genes for RT-Determination of caspase-3/9 activity by flow qPCR array cytometric analysis Differential expression of telomeres/telomerase-related genes was analyzed using the Telomeres & […]

T1 sequence (O14746 whole entry): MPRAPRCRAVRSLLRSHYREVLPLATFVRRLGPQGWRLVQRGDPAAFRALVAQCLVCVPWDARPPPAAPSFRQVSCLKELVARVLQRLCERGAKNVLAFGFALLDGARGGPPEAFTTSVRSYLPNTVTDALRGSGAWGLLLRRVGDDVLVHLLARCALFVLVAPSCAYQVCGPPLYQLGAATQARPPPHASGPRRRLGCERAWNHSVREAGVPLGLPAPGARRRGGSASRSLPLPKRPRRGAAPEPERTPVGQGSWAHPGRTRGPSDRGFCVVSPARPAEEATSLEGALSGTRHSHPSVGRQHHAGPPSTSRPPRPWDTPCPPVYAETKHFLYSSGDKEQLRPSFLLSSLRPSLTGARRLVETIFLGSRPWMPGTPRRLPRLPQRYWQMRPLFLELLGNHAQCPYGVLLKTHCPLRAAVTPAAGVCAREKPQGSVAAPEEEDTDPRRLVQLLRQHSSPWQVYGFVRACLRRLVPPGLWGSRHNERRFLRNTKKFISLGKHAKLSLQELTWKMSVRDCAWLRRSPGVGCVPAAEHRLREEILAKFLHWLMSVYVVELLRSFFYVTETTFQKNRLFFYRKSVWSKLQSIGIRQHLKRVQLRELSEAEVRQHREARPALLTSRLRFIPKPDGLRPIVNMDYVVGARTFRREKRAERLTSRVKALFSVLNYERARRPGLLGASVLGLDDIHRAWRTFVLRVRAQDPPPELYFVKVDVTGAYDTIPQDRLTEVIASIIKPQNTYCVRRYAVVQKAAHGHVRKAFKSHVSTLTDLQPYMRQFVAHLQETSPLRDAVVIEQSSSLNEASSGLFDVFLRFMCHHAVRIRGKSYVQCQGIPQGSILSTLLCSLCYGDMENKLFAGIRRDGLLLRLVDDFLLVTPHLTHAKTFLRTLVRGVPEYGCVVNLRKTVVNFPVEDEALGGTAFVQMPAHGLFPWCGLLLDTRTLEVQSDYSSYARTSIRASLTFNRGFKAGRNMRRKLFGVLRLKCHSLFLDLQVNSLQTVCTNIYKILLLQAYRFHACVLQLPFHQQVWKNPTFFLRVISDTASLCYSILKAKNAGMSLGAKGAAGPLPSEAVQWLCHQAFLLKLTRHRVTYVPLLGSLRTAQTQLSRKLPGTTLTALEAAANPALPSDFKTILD
T1 sequence (O60832 whole entry partner): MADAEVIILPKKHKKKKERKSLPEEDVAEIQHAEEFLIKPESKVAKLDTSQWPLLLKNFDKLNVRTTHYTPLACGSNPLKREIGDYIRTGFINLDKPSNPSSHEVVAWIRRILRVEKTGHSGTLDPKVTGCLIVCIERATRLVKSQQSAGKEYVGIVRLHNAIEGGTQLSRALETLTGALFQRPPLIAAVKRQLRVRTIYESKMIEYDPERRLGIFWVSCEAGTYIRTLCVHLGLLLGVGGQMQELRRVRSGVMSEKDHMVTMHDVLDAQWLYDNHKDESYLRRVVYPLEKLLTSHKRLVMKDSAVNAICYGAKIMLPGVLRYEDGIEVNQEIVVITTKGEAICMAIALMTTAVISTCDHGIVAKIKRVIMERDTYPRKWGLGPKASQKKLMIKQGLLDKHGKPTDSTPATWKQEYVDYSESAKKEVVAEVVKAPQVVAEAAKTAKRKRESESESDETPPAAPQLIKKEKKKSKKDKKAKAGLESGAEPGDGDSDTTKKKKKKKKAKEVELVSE
T1 sequence (Q9NPE3 whole entry partner): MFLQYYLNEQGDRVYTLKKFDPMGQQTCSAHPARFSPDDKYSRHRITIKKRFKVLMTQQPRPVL
T1 sequence (Q9NX24 whole entry partner): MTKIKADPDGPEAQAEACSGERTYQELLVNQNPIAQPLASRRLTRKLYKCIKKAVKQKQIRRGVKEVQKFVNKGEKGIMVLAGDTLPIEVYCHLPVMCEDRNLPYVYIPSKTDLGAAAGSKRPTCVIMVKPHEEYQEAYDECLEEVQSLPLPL
T1 sequence (Q9NY12 whole entry partner): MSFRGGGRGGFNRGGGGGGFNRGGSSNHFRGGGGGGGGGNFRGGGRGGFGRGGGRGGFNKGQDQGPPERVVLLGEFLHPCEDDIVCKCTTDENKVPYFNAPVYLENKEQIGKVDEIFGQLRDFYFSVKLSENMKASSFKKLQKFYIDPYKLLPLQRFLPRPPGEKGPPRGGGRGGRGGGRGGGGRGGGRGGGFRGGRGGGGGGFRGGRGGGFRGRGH
T1 sequence (Q9BUR4 whole entry partner): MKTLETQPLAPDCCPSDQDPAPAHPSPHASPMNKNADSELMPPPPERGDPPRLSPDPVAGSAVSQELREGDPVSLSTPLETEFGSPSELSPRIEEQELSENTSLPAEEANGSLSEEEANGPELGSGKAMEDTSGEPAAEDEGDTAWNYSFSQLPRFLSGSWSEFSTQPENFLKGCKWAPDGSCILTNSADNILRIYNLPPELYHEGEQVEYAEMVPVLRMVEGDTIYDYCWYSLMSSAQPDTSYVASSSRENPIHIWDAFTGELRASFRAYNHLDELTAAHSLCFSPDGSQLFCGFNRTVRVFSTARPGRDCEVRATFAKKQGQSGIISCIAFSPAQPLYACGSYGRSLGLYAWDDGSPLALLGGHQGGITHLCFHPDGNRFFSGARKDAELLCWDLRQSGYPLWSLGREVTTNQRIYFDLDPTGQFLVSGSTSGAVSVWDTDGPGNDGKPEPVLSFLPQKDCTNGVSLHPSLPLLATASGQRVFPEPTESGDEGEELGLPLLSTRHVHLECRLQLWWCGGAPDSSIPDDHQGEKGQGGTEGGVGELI

Row | Compound | G4DC50 [4] [µM] | IC50 [1] [µM] | ctDNADC50/Pu27DC50 [2] | Pu27DC50 [2] [µM] | ctDNADC50/ctDNADC50 [3] | ctDNADC50 [3] [µM] | solubility in water [5] [µg/mL] | percentage of cells at S phase [6] [%] | Pu22DC50 [7] [µM] | ctDNADC50/Pu22DC50 [7] | inhibitory ratio of telomerase activity [8] [%]
1 | O=C(NC[C@@H](O)CO)c1cnc2c3c(cccc13)-c1ccccc1C2=O.[Cl-].[Cl-].[Pt+2] [ligand 2, R-(+)-FOA] | 1.26 | 45.8 ± 2.8 | 22.59 | 1.77 | 1.00 | 39.98 |  |  |  |  | 
2 | cis-[PtCl2(R-(+)-FOA)] [complex 5] |  |  |  |  |  |  | 1000 | 32.33 | 1.74 | 36.60 | 23.35
3 | cis-[PtCl2(R/S-(±)-FOA)] [complex 4] |  |  |  |  |  |  | 680 | 37.59 | 7.41 | 10.24 | 63.03
4 | cis-[PtCl2(S-(–)-FOA)] [complex 6] |  |  |  |  |  |  | 2000 | 38.61 | 1.14 | 79.59 | 67.82

Second part, led by results:

Row | G4DC50 [4] [µM] | Compound | IC50 [1] [µM] | ctDNADC50/Pu27DC50 [2] | Pu27DC50 [2] [µM] | ctDNADC50/ctDNADC50 [3] | ctDNADC50 [3] [µM] | solubility in water [5] [µg/mL] | percentage of cells at S phase [6] [%] | Pu22DC50 [7] [µM] | ctDNADC50/Pu22DC50 [7] | inhibitory ratio of telomerase activity [8] [%]
5 | 1.23 | O=C(NCC(O)CO)c1cnc2c3c(cccc13)-c1ccccc1C2=O.[Cl-].[Cl-].[Pt+2] (racemic) [ligand 1, R/S-(±)-FOA] | 32.4 ± 0.8 | 39.24 | 1.63 | 1.00 | 63.96 |  |  |  |  | 
6 | 0.99 | O=C(NC[C@H](O)CO)c1cnc2c3c(cccc13)-c1ccccc1C2=O.[Cl-].[Cl-].[Pt+2] [ligand 3, S-(–)-FOA] | 35.7 ± 2.9 | 62.81 | 1.43 | 1.00 | 89.82 |  |  |  |  | 
